Test results: the NIST ThermoML archive (doi:10.1016/j.fluid.2006.03.020)
± gives the expanded uncertainty stated by the source.

Experiment: excess molar enthalpy (molar enthalpy of mixing); xn = mol fraction of the nth substance listed
Conditions: 303.15 K, 101 kPa, Liquid, Flow calorimetry

C1COCCO1 [1,4-dioxane] + C1CCCCC1
Conditions	excess molar enthalpy [kcal/mol]
x1 = 0.0547	0.0884 ± 0.00287
x1 = 0.153	0.211 ± 0.00311
x1 = 0.2558	0.302 ± 0.00335
x1 = 0.3916	0.3674 ± 0.00359
x1 = 0.5072	0.38 ± 0.00382
x1 = 0.6511	0.346 ± 0.00359
x1 = 0.7029	0.315 ± 0.00335
x1 = 0.7606	0.269 ± 0.00335
x1 = 0.8499	0.189 ± 0.00311
x1 = 0.9288	0.097 ± 0.00287

C1COCCO1 [1,4-dioxane] + CCCCCCCC
Conditions	excess molar enthalpy [kcal/mol]
x1 = 0.0577	0.0985 ± 0.00287
x1 = 0.1002	0.161 ± 0.00311
x1 = 0.151	0.228 ± 0.00311
x1 = 0.2075	0.291 ± 0.00335
x1 = 0.2491	0.334 ± 0.00359
x1 = 0.3048	0.376 ± 0.00382
x1 = 0.3676	0.4156 ± 0.00406
x1 = 0.4092	0.4316 ± 0.00406
x1 = 0.4536	0.4479 ± 0.00406
x1 = 0.507	0.4522 ± 0.00406
x1 = 0.5583	0.4529 ± 0.00406
x1 = 0.6089	0.4381 ± 0.00406
x1 = 0.6599	0.4195 ± 0.00406
x1 = 0.6959	0.4001 ± 0.00382
x1 = 0.7553	0.3599 ± 0.00359
x1 = 0.8045	0.314 ± 0.00359
x1 = 0.8586	0.248 ± 0.00335
x1 = 0.8997	0.192 ± 0.00311
x1 = 0.9352	0.131 ± 0.00311

CCCCCCCC [octane] + C1CCCCC1
Conditions	excess molar enthalpy [kcal/mol]
x1 = 0.0275	0.0124 ± 0.00239
x1 = 0.0507	0.0191 ± 0.00239
x1 = 0.0896	0.0301 ± 0.00239
x1 = 0.1482	0.0413 ± 0.00239
x1 = 0.1912	0.0492 ± 0.00239
x1 = 0.2487	0.055 ± 0.00239
x1 = 0.2922	0.0588 ± 0.00239
x1 = 0.3709	0.0619 ± 0.00239
x1 = 0.4676	0.0617 ± 0.00239
x1 = 0.5738	0.0574 ± 0.00239
x1 = 0.642	0.0516 ± 0.00239
x1 = 0.7256	0.043 ± 0.00239
x1 = 0.79	0.0356 ± 0.00239
x1 = 0.8267	0.0296 ± 0.00239
x1 = 0.869	0.0237 ± 0.00239
x1 = 0.8976	0.0179 ± 0.00239
